# Experiments:
# [1] = test system: saline-loaded adrenalectomized rats treated with aldosterone; experiment: Antimineralocorticoid activity in saline-loaded adrenalectomized rats treated with aldosterone (Example A-2); format: in vivo
# Description: Methods: The antimineralocorticoid pharmacological activity was determined in saline-loaded adrenalectomized rats treated with aldosterone. […] Urinary sodium, potassium and water excretion were measured.
# [2] = test system: saline-hydrated conscious dogs treated with aldosterone; experiment: Antimineralocorticoid action in saline-hydrated conscious dogs treated with aldosterone (Example A-2); format: in vivo; conditions: aldosterone i.v. infusion; antagonist 10 mg/kg orally
# [3] = test system: saline-loaded adrenalectomized rats treated with aldosterone; experiment: Subcutaneous vs. oral eplerenone in saline-loaded adrenalectomized rats treated with aldosterone (Example A-3); format: in vivo
# Description: Urinary sodium, potassium and water excretion were measured. The results are expressed as the ratio of excreted urinary sodium to potassium (Na/K)±SEM.
# [4] = test system: uninephrectomized rats given 1% NaCl and aldosterone infusion; experiment: Volume expanded hypertensive rats, telemetry (Example A-4); format: in vivo; conditions: 24 h average after three weeks
# [5] = Dissolution rate and physical stability of solid state forms of eplerenone; format: physicochemical; conditions: temperatures below the enantiotropic transition temperature, versus Form H
# [6] = test system: older patients with systolic hypertension and/or widened pulse pressure; experiment: Eplerenone versus amlodipine in systolic hypertension in older people, 24 weeks (Examples A-19, D-8); format: in vivo, human
# Source text: At Week 10 or thereafter, if SBP is =170 mmHg on two consecutive visits, one to three days apart, and the patient is on the maximum dose of study drug, he/she must be withdrawn. Patients will receive double-blind study medication for a total of 24 weeks. Table A-19A illustrates the above-described dosing scheme.
# Heart rate, BP, serum potassium levels, concomitant medications and adverse events will be assessed at each visit. […] Special studies: collagen markers [aminoterminal propeptide of type III procollagen (PIIINP), 7S domain of type IV collagen (7SIVC), and type I collagen telopeptide (ICTP)], plasma […] (PAI-1), tissue plasminogen activator (t-PA), microalbuminuria, and at selected sites, Ambulatory Blood Pressure Monitoring (ABPM) and arterial compliance will be done at Weeks 0, 14, and 24 or at Final Visit. Quality of Life Questionnaires will be done at visit 2A (beginning of single blind) and Weeks 0, 14, and 24 or at Final Visit. DNA genotyping will be performed at baseline.
# In older patients, elevated systolic BP and wide pulse pressure predict cardiovascular risk better than diastolic BP. Reduced vascular compliance and intraglomerular hypertension typically accompany isolated systolic hypertension in older people.
# Changes in arterial compliance, measured by pulse-wave velocity, microalbuminuria, and adverse effects (AEs) were assessed at baseline and after 24 weeks of therapy.
# [7] = test system: hypertensive patients; experiment: Eplerenone vs. amlodipine, ambulatory blood pressure monitoring, 16 weeks (Example D-12); format: in vivo, human; conditions: in vivo
# Source text: This was a multicenter, randomized, double-blind, active-controlled, placebo run-in, parallel group study. […] If symptomatic hypotension occurred at Week 2 or Weeks 4, 6, 8, or 12 and the patient was on the lowest dose level (Dose Level 1), the patient was to be withdrawn. Study assessments at protocol-specified timepoints included BP, heart rate, ABPM, Holter recording, clinical laboratory analyses including serum potassium levels, concomitant medications. Throughout the study, safety was assessed by routine clinical laboratory analyses, vital signs, physical examinations, 12-lead ECG, and monitoring of adverse events.
# [8] = test system: L-NAME/Angiotensin II/NaCl-treated rats; experiment: L-NAME/Angiotensin II/NaCl model of cardiac and renal injury (Example A-1); format: in vivo, Male Wistar rats; conditions: Epl 100 mg/kg/day p.o., ALDO 40 μg/kg/day in adrenalectomized rats
# Description: Animals. Male Wistar rats (n=44), weighing 200 to 225 grams, and obtained from Charles River Laboratories (Wilmington, Mass.) were used in the study. All animals were housed in a room lighted 12 hours per day at an ambient temperature of 22±1° C. Animals were allowed one week to recover after arrival and had free access to Purina Lab Chow 5001 (Ralston Purina Inc, St. Louis, Mo.) and tap water until the initiation of the experiment. After initiation of the protocols, animals in all groups were placed in individual metabolic cages, handled and weighed daily. Twenty-four hour fluid intake, food intake and urine output were measured daily. […] On day 14 of L-NAME treatment, animals were decapitated, trunk blood was collected into chilled tubes containing ethylene diamine tetraacetic acid and the heart and kidneys were removed, blotted dry and immediately weighed. […] Drugs. Eplerenone was supplied by G.D. Searle Pharmaceuticals (St. […] Dexamethasone was dissolved in sesame oil and administered as a single subcutaneous dose (12 μg/kg/day) every day. This dose of dexamethasone has been reported to, maintain normal weight gain, glomerular filtration rate, and fasting plasma glucose and insulin levels in adrenalectomized rats. Stanton, B., Giebisch G et al. J. Clin. Invest 1985 75:1317-1326. The experiment was concluded on day 14 of L-NAME treatment. […] (Hou J et al. J. Clin. Invest 1995 96:2469-2477. […] This lower dose induced lesions in stroke-prone spontaneously hypertensive rats. (Rocha R et al. […] Dexamethasone, aldosterone and L-NAME were purchased from Sigma Chemical Co. (St. Louis, Mo.). […] Surgical Procedure. […] Bilateral adrenalectomy was performed using a dorsolumbar approach, making separate incisions on each side. […] No post operative deaths occurred. Assays and Analyses. Systolic blood pressure was measured in awake animals by tail-cuff plethysmography using a Natsume KN-210 manometer and tachometer (Peninsula Laboratories Inc, Belmont, Calif.). Rats were warmed at 37° C. for 10 minutes and allowed to rest quietly in a Lucite chamber before measurement of blood pressure. Urinary protein concentration was determined in urine collected on the last day of the experiment using the sulfosalicylic acid turbidity method. […] Plasma aldosterone concentration was determined using a standard radioimmunoassay-kit from Diagnostic Products Co. (Los Angeles, Calif.). Plasma renin activity (“PRA”) was determined by radioimmunoassay detection of generated angiotensin I (DiaSorin Inc., Stillwater, Minn.). Histology. Hearts were stained with collagen specific dye Sirius red for determination of fibrosis as reported elsewhere. (Young M et al. Am. J. Physiol 1995 269:[…]-[…]). Interstitial collagen was determined using an automated image analyzer. The hearts were also stained with hematoxylin and eosin for light microscopic analysis. Two or three slices of different sections of the heart containing both right and left ventricle were analyzed from each animal. […] Glomerular damage, when present, was characterized as the presence of either segmental or global sclerosis with ischemic or thrombotic changes. Renal arterial and arteriolar damage was categorized as the presence of fibrinoid necrosis of the vascular wall. The renal arterial and arteriolar profiles presenting damage were counted and the number of injured vessels per section was divided by the number of glomeruli in the same section in order to normalize for the amount of tissue examined. […] Statistical analysis. Data were tested for normality using the Kolmogorov-Smirnov test. Systolic blood pressure was analyzed using repeated measures-analysis of variance for time and treatment group. One-way analysis of variance was used for normally distributed data with one grouping variable. Post-hoc analysis was performed using Newman Keuls multiple-comparison test. Data that were not normally distributed were analyzed with the Kruskal-Wallis test. […]
# [9] = after 24 weeks, titration-to-effect
structure (smiles),measurement,setting,value
CC(=O)S[C@@H]1CC2=CC(=O)CC[C@]2(C)[C@H]2CC[C@@]3(C)[C@@H](CC[C@@]34CCC(=O)O4)[C@H]12 [Spironolactone],Urinary Na/K ± SEM,[1]; aldosterone & antagonist 1 mg/kg by gavage,2.26 ± 0.25
same,Urinary Na/K ± SEM,[1]; aldosterone & antagonist 3 mg/kg by gavage,2.90 ± 0.25
same,Urinary Na/K ± SEM,[1]; aldosterone & antagonist 10 mg/kg by gavage,4.38 ± 0.26
same,Na/K Ratio,[2],1.7
same,Urinary Excretion Potassium,[2],7.4 ± 0.7 mmol/2 h
same,Urinary Excretion Sodium,[2],12.6 ± 2 mmol/2 h
same,Mean Na/K,"[3]; Table A-3A, aldosterone + antagonist 10 mg/100 g rat",1.56
same,Mean Na/K,"[3]; Table A-3A, aldosterone + antagonist 30 mg/100 g rat",3.02
same,Mean Na/K,"[3]; Table A-3A, aldosterone + antagonist 100 mg/100 g rat",4.02
same,HR: Heart Rate,[4]; aldosterone & antagonist 100 mg/kg s.c.,338 ± 4 beats/min
same,HR: Heart Rate,[4]; aldosterone & antagonist 200 mg/kg s.c.,336 ± 7 beats/min
COC(=O)[C@@H]1CC2=CC(=O)CC[C@]2(C)[C@@]23O[C@@H]2C[C@@]2(C)[C@@H](CC[C@@]24CCC(=O)O4)[C@H]13 [Form L],physical stability,[5],greater physical stability
"CCOC(=O)C1=C(COCCN)NC(C)=C(C(=O)OC)C1c1ccccc1Cl (centres unmarked) [Amlodipine, reference compound]",Edema rates (%),[6]; 24-week study,25.2%
same,peripheral edema frequency,[6]; 24 weeks,25.2%
same,reduction in pulse pressure,[6]; 24 weeks,−13.4 mmHg
same,symptoms with significant and clinically meaningful worsening in distress from Baseline (QoL),[6]; 24 weeks,21 symptoms
same,reduction in SBP,"[6]; 24 weeks, EPL 50-200 mg QD, AML 2.5-10 mg QD",−20.1 mmHg
same,Pulse Pressure (change),[6]; [9],−13.4 ± 0.95 mmHg
same,Systolic BP (change),[6]; [9],−20.1 ± 1.13 mmHg
same,safety and tolerability,[6]; in vivo,safe and well tolerated
same,Δ microalbuminuria (%),"[6]; only for patients with baseline microalbuminuria (>30 mg/g), 24 weeks",−10.4%
same,reduction in UACR,[6]; patients with baseline microalbuminuria (>30 mg/g),−3.3%
same,incidence of peripheral edema,[7],greater incidence of peripheral edema
same,safety and tolerability,[7],safe and well tolerated
C[C@]12CCC(=O)C=C1CC[C@@H]1[C@@H]2[C@@H](O)C[C@]2(C=O)[C@@H](C(=O)CO)CC[C@@H]12 [Aldosterone],HW,[8]; end of experiment (day 14),951 ± 16 mg
same,HW/BW (cardiac hypertrophy index),[8]; end of experiment (day 14),3.57 ± .06 mg/g
same,SBP,[8]; end of experiment,192 ± 7 mmHg
same,Urinary Na/K ± SEM,[1]; aldosterone alone,1.68 ± 0.04
same,Na/K Ratio,[2],0.09
same,Urinary Excretion Potassium,[2],10.5 mmol/2 h
same,Urinary Excretion Sodium,[2],1.0 mmol/2 h
same,Mean Na/K,"[3]; Table A-3A, aldosterone alone",1.68
same,Mean Na/K,"[3]; Table A-3B, aldosterone alone",1.21
same,HR: Heart Rate,[4]; aldosterone & vehicle,346 ± 6 beats/min
same,SAP: Systolic arterial pressure,[4]; aldosterone & vehicle,202 ± 7 mmHg

# Reference: US20070191324A1, “Methods for treatment or prophylaxis of aldosterone-mediated pathogenic effects in a subject using an epoxy-steroidal aldosterone antagonist” (priority 1999, published 2007)
